System: Male BALB/c HSD mice
Test: Survival of mice rendered hepatotoxic by LPS/GAL treatment (model for septic shock / hepatic failure)
Assay type: in vivo
Protocol: Hepatic failure was induced in mice by intraperitoneal injections of a mixture of lipopolysaccharide (LPS) (100 µg/kg) and D-galactosamine (GAL) (700 mg/kg) to form LPS/GAL. LPS is a bacterial endotoxin that is a major stimulus for production of many cytokines, particularly tumor necrosis factor (TNF), thought to be involved in liver injury. GAL is an amino sugar that sensitizes hepatocytes by depleting the base uridine and thus preventing hepatic transcription, and sensitizes animals to normally innocuous amounts of endotoxin or TNF. The LPS/GAL treatment induces fulminate hepatic and multiorgan failure, and serves as a model for septic shock. The major effects of LPS/GAL are elicited by the inflammatory cytokine TNF-α. Hepatocytes sensitized to TNF-α then undergo apoptosis or programmed cell death in response to inflammatory processes.
Mice were treated with deltorphin and were subsequently rendered hepatotoxic by LPS/GAL treatment. An emulsion of deltorphin I SEQ ID NO:1 (Tyr-D-Ala-Phe-Asp-Val-Val-Gly-NH2) was prepared at a concentration of 80 µg/200 µl in sterile phosphate buffered saline (PBS). An emulsion of DADLE (Tyr-D-Ala-Gly-Phe-D-Leu-enkephalin) was also prepared at a concentration of 80 µg/200 µl in sterile PBS. Male BALB/c HSD mice were treated by intraperitoneal injections according to the following protocol. Control mice (n = 7) received only LPS/GAL (280 µl) at 6.5 h. Deltorphin I SEQ ID NO:1 treated mice (n = 15) received injections of 4 mg/kg deltorphin I SEQ ID NO:1 at 0 h, 2 h, 4 h, 6 h and 7.5 h and received an LPS/GAL injection at 6.5 h. DADLE treated mice (n = 15) received 4 mg/kg DADLE at 0 h, 2 h, 4 h, 6 h and 7.5 h and received an LPS/GAL injection at 6.5 h.
Both control and treated mice were monitored at 15 h, 20 h, 40 h and 65 h after the last injection. TABLE

[1] = n = 15, 4 mg/kg intraperitoneal at 0 h, 2 h, 4 h, 6 h and 7.5 h, LPS/GAL at 6.5 h, 15 h after the last injection
[2] = n = 15, 4 mg/kg intraperitoneal at 0 h, 2 h, 4 h, 6 h and 7.5 h, LPS/GAL at 6.5 h, 20 h after the last injection
[3] = n = 15, 4 mg/kg intraperitoneal at 0 h, 2 h, 4 h, 6 h and 7.5 h, LPS/GAL at 6.5 h, 40 h after the last injection
[4] = n = 15, 4 mg/kg intraperitoneal at 0 h, 2 h, 4 h, 6 h and 7.5 h, LPS/GAL at 6.5 h, 65 h after the last injection

Tyr-D-Ala-Gly-Phe-D-Leu-enkephalin [DADLE]
survival time (mice made septic by LPS/GAL treatment, compared to mice receiving LPS/GAL only): not as striking | SURVIVAL 15 Hours (number of mice) [1]: 3 | SURVIVAL 15 Hours (percent) [1]: 20% | SURVIVAL 20 Hours (number of mice) [2]: 3 | SURVIVAL 20 Hours (percent) [2]: 20% | SURVIVAL 40 Hours (number of mice) [3]: 3 | SURVIVAL 40 Hours (percent) [3]: 20% | SURVIVAL 65 Hours (number of mice) [4]: 3 | SURVIVAL 65 Hours (percent) [4]: 20%
